Measurements from patent publication US20080207527A1, “Bicyclic Compounds Which Inhibit Beta-Secretase Activity and Methods of Use Thereof” (CoMentis, Inc., priority 2004, published 2008).

Columns and labels:
[1] = molecular target: T1, memapsin 1 (Homo sapiens, UniProt Q9Y5Z0); assay: Inhibition of memapsin 1 beta-secretase activity (substrate peptide hydrolysis, MALDI-TOF); type: biochemical; details: pH 4.1, 37 degrees C., read-out: M1 Ki
T1 sequence (Q9Y5Z0 63-518): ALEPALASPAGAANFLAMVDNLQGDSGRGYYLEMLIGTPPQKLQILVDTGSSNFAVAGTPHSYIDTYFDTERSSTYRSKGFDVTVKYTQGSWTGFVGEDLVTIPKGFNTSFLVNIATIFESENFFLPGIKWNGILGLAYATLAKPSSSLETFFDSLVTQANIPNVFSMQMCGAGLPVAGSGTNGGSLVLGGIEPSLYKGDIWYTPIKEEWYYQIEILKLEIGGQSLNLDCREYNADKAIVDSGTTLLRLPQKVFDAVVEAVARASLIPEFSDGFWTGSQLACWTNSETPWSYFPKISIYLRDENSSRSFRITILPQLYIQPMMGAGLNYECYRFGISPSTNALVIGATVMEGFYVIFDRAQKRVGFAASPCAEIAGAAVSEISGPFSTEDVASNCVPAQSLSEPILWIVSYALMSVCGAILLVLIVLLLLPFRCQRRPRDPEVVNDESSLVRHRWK

[2] = test system: Aβ production; assay: Cellular Aβ IC50 determination (Aβ40 sandwich ELISA); type: cell-based; details: Cricetulus griseus, Chinese hamster ovary cells over-expressing human APP695 with London and Swedish mutations, 24 h
Method: The potency of compounds against memapsin 2 activity was determined in a cellular assay of Aβ production. […] Chinese hamster ovary cells that over-express human APP695 with the London and Swedish mutations were seeded in multi-well plates at 10% confluency. Compounds were dissolved in DMSO to concentrations near 1 mM, and diluted into culture media to a final concentration near 4 μM (final 0.4% DMSO). Compounds were diluted serially and applied to cells in multi-well plates 48 h after seeding. Incubation was continued in 5% CO2 at 37 degrees C. for 24 h. Aliquots were removed and assayed for Aβ40 content using a sandwich ELISA (BioSource International). Amount of Aβ40 over the range of concentration of compounds, relative to control incubations, were fit to a 4-parameter IC50 model.

[3] = molecular target: memapsin 2 (Homo sapiens, UniProt P56817); assay: Inhibition of memapsin 2 beta-secretase activity toward fluorogenic substrate FS-2; type: biochemical; details: pH 4, 37° C., 20 minutes pre-incubation, read-out: M2 Ki
Chain of memapsin 2 (P56817 46-501): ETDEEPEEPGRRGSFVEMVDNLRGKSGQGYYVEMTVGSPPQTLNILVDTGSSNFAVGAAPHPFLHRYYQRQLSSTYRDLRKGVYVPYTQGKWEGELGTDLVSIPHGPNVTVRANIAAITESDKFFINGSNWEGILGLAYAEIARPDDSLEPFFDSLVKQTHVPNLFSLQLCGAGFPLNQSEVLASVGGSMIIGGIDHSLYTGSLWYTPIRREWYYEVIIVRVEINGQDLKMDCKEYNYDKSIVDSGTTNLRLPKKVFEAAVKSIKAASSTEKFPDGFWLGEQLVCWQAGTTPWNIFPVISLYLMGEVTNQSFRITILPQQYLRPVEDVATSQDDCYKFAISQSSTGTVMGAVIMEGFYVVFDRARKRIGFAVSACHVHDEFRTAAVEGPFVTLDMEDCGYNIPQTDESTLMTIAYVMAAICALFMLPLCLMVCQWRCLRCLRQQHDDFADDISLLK
Method: Potency of compounds were determined by measurement of their inhibition of memapsin 2 activity toward a fluorescent substrate. […] Briefly, assays were performed at pH 4, 37° C., by pre-incubation of memapsin 2 enzyme with compound for 20 minutes. Activity measure was initiated by addition of a fluorogenic substrate FS-2 (Bachem Americas, Torrance, Calif.). Fluorescent signal increase over time was measured as a rate of hydrolysis of the peptide substrate.

[4] = molecular target: Cathepsin D (Homo sapiens, UniProt P07339); assay: Inhibition of cathepsin D activity (substrate peptide hydrolysis, MALDI-TOF); type: biochemical; details: pH 4.1, 37 degrees C., read-out: Cath D Ki
Chain of Cathepsin D (P07339 65-412, species assumed): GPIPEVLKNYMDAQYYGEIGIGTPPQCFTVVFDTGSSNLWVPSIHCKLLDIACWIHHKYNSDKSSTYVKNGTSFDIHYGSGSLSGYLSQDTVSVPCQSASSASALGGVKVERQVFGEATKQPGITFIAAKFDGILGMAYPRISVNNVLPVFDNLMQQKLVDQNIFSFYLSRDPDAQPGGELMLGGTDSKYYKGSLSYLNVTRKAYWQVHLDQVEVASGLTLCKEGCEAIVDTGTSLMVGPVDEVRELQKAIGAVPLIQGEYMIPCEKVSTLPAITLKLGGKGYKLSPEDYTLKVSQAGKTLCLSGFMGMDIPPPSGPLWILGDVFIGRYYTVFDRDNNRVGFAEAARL

| Ki [1] | IC50 [2] | Ki [3] | Ki [4] | Compound |
| --- | --- | --- | --- | --- |
| < 405 nM | < 5000 nM | 405 to 2000 nM | < 405 nM | CC(C)CNC(=O)C(NC(=O)C(C)CC(O)C(CC(C)C)NC(=O)c1cc(C(=O)NC(C)c2ccccc2)cc(S(=O)(=O)N(C)C)c1)C(C)C (stereo not shown) [5-(N,N-dimethylsulfamoyl)-N1-(5-hydroxy-8-(1-(isobutylamino)-3-methyl-1-oxobutan-2-ylamino)-2,7-dimethyl-8-oxooctan-4-yl)-N3-(1-phenylethyl)isophthalamide] |
| < 405 nM | 5000 to 10000 nM | < 405 nM | < 405 nM | CC(=O)Nc1cc(C(=O)NC(C)c2ccccc2)cc(C(=O)NC(CC(C)C)C(O)CC(C)C(=O)NC(C(=O)NCC(C)C)C(C)C)c1 (stereo not shown) [5-acetamido-N1-(5-hydroxy-8-(1-(isobutylamino)-3-methyl-1-oxobutan-2-ylamino)-2,7-dimethyl-8-oxooctan-4-yl)-N3-(1-phenylethyl)isophthalamide] |
| < 405 nM | 10000 to 20000 nM | 405 to 2000 nM | < 405 nM | CC(C)CNC(=O)C(NC(=O)C(C)CC(O)C(CC(C)C)NC(=O)c1cc(F)cc(C(=O)NC(C)c2ccccc2)c1)C(C)C (stereo not shown) [5-fluoro-N1-(5-hydroxy-8-(1-(isobutylamino)-3-methyl-1-oxobutan-2-ylamino)-2,7-dimethyl-8-oxooctan-4-yl)-N3-(1-phenylethyl)isophthalamide] |
| < 405 nM | < 5000 nM | < 405 nM | < 405 nM | CCCN(CCC)C(=O)c1cccc(C(=O)NC(Cc2cc(F)cc(F)c2)C(O)CC(C)C(=O)NCC(C)C)c1 (stereo not shown) [N1-(1-(3,5-difluorophenyl)-3-hydroxy-6-(isobutylamino)-5-methyl-6-oxohexan-2-yl)-N3,N3-dipropylisophthalamide] |
| < 405 nM | 10000 to 20000 nM | 405 to 2000 nM | < 405 nM | CCCN(CCC)C(=O)c1cccc(C(=O)NC(Cc2ccc(OC)c(Cl)c2)C(O)CC(C)C(=O)NC(C(=O)NCC(C)C)C(C)C)c1 (stereo not shown) [N1-(1-(3-chloro-4-methoxyphenyl)-3-hydroxy-6-(1-(isobutylamino)-3-methyl-1-oxobutan-2-ylamino)-5-methyl-6-oxohexan-2-yl)-N3,N3-dipropylisophthalamide] |
| 405 to 2000 nM | > 20000 nM | 405 to 2000 nM | 405 to 2000 nM | CC(C)CC(NC(=O)c1cc(C(=O)NC2c3ccccc3CC2O)cc(N(C)S(C)(=O)=O)c1)C(O)CC(C)C(=O)NC(C(=O)NC(C)C)C(C)C (stereo not shown) [N1-(2-hydroxy-2,3-dihydro-1H-inden-1-yl)-N3-(5-hydroxy-8-(1-(isopropylamino)-3-methyl-1-oxobutan-2-ylamino)-2,7-dimethyl-8-oxooctan-4-yl)-5-(N-methylmethylsulfonamido)isophthalamide] |
| < 405 nM | 5000 to 10000 nM | < 405 nM | < 405 nM | CCCN(CCC)C(=O)c1cccc(C(=O)NC(Cc2ccc(OC)cc2)C(O)CC(C)C(=O)NC(C(=O)NCC(C)C)C(C)C)c1 (stereo not shown) [N1-(3-hydroxy-6-(1-(isobutylamino)-3-methyl-1-oxobutan-2-ylamino)-1-(4-methoxyphenyl)-5-methyl-6-oxohexan-2-yl)-N3,N3-dipropylisophthalamide] |
| 405 to 2000 nM | < 5000 nM | < 405 nM | 405 to 2000 nM | CC(C)CC(NC(=O)c1cc(C(=O)NC(C)c2ccccc2)cc(N(C)S(C)(=O)=O)c1)C(O)CC(C)C(=O)NC(C(=O)NCC1CCCN1C)C(C)C (stereo not shown) [N1-(5-hydroxy-2,7-dimethyl-8-(3-methyl-1-((1-methylpyrrolidin-2-yl)methylamino)-1-oxobutan-2-ylamino)-8-oxooctan-4-yl)-5-(N-methylmethylsulfonamido)-N3-(1-phenylethyl)isophthalamide] |
| < 405 nM | < 5000 nM | < 405 nM | < 405 nM | CC(C)CC(NC(=O)c1cc(C(=O)NC(C)c2ccccc2)cc(N(C)S(C)(=O)=O)c1)C(O)CC(C)C(=O)NC(C(=O)NCc1ccccn1)C(C)C (stereo not shown) [N1-(5-hydroxy-2,7-dimethyl-8-(3-methyl-1-oxo-1-(pyridin-2-ylmethylamino)butan-2-ylamino)-8-oxooctan-4-yl)-5-(N-methylmethylsulfonamido)-N3-(1-phenylethyl)isophthalamide] |
| < 405 nM | < 5000 nM | < 405 nM | 405 to 2000 nM | CC(C)CC(NC(=O)c1cc(C(=O)NC(C)c2ccccc2)cc(N(C)S(C)(=O)=O)c1)C(O)CC(C)C(=O)NC(C(=O)NCc1cccnc1)C(C)C (stereo not shown) [N1-(5-hydroxy-2,7-dimethyl-8-(3-methyl-1-oxo-1-(pyridin-3-ylmethylamino)butan-2-ylamino)-8-oxooctan-4-yl)-5-(N-methylmethylsulfonamido)-N3-(1-phenylethyl)isophthalamide] |
| < 405 nM | < 5000 nM | < 405 nM | < 405 nM | CC(C)CC(NC(=O)c1cc(C(=O)NC(C)c2ccccc2)cc(N(C)S(C)(=O)=O)c1)C(O)CC(C)C(=O)NC(C(=O)NCc1ccncc1)C(C)C (stereo not shown) [N1-(5-hydroxy-2,7-dimethyl-8-(3-methyl-1-oxo-1-(pyridin-4-ylmethylamino)butan-2-ylamino)-8-oxooctan-4-yl)-5-(N-methylmethylsulfonamido)-N3-(1-phenylethyl)isophthalamide] |
| > 5000 nM | 10000 to 20000 nM | 405 to 2000 nM | 2000 to 5000 nM | CC(C)CC(NC(=O)c1cc(C(=O)NC(C)c2ccccc2)cc(N(C)S(C)(=O)=O)c1)C(O)CC(C)C(=O)NC(C)c1ccccc1 (stereo not shown) [N1-(5-hydroxy-2,7-dimethyl-8-oxo-8-(1-phenylethylamino)octan-4-yl)-5-(N-methylmethylsulfonamido)-N3-(1-phenylethyl)isophthalamide] |
| < 405 nM | < 5000 nM | < 405 nM | < 405 nM | CCC(NC(=O)C(C)CC(O)C(CC(C)C)NC(=O)c1cc(C(=O)NC(C)c2ccccc2)cc(N(C)S(C)(=O)=O)c1)C(=O)NCC(C)C (stereo not shown) [N1-(5-hydroxy-8-(1-(isobutylamino)-1-oxobutan-2-ylamino)-2,7-dimethyl-8-oxooctan-4-yl)-5-(N-methylmethylsulfonamido)-N3-(1-phenylethyl)isophthalamide] |
| 405 to 2000 nM | > 20000 nM | < 405 nM | 405 to 2000 nM | CC(C)CNC(=O)C(NC(=O)C(C)CC(O)C(CC(C)C)NC(=O)c1cc(C(=O)NCc2cnccn2)cc(N(C)S(C)(=O)=O)c1)C(C)C (stereo not shown) [N1-(5-hydroxy-8-(1-(isobutylamino)-3-methyl-1-oxobutan-2-ylamino)-2,7-dimethyl-8-oxooctan-4-yl)-5-(N-methylmethylsulfonamido)-N3-(pyrazin-2-ylmethyl)isophthalamide] |
| < 405 nM | < 5000 nM | < 405 nM | < 405 nM | Cc1cc(C(=O)NC(CC(C)C)C(O)CC(C)C(=O)NC(C(=O)NCC(C)C)C(C)C)cc(C(=O)N(C)Cc2nc(C)cs2)c1 (stereo not shown) [N1-(5-hydroxy-8-(1-(isobutylamino)-3-methyl-1-oxobutan-2-ylamino)-2,7-dimethyl-8-oxooctan-4-yl)-N3,5-dimethyl-N3-((4-methylthiazol-2-yl)methyl)isophthalamide] |
| 405 to 2000 nM | 10000 to 20000 nM | < 405 nM | < 405 nM | CCCN(Cc1nc(C)cs1)C(=O)c1cccc(C(=O)NC(CC(C)C)C(O)CC(C)C(=O)NC(C(=O)NCC(C)C)C(C)C)c1 (stereo not shown) [N1-(5-hydroxy-8-(1-(isobutylamino)-3-methyl-1-oxobutan-2-ylamino)-2,7-dimethyl-8-oxooctan-4-yl)-N3-((4-methylthiazol-2-yl)methyl)-N3-propylisophthalamide] |
| 405 to 2000 nM | – | < 405 nM | < 405 nM | Cc1nc(CN(C)C(=O)c2cccc(C(=O)NC(CC(C)C)C(O)CC(C)C(=O)NC(C(=O)NCC(C)C)C(C)C)c2)c(C)o1 (stereo not shown) [N1-((2,5-dimethyloxazol-4-yl)methyl)-N3-(5-hydroxy-8-(1-(isobutylamino)-3-methyl-1-oxobutan-2-ylamino)-2,7-dimethyl-8-oxooctan-4-yl)-N1-methylisophthalamide] |
| < 405 nM | – | 405 to 2000 nM | < 405 nM | COC(=O)N(C)c1cc(C(=O)NC(C)c2ccccc2)cc(C(=O)NC(CC(C)C)C(O)CC(C)C(=O)NC(C(=O)NCC(C)C)C(C)C)c1 (stereo not shown) [methyl 3-(5-hydroxy-8-(1-(isobutylamino)-3-methyl-1-oxobutan-2-ylamino)-2,7-dimethyl-8-oxooctan-4-ylcarbamoyl)-5-(1-phenylethylcarbamoyl)phenyl(methyl)carbamate] |
